ChEMBL document CHEMBL5352439, “Design, synthesis, biological evaluation and molecular docking study of novel urea-based benzamide derivatives as potent poly(ADP-ribose) polymerase-1 (PARP-1) inhibitors” (Eur J Med Chem, 2022)

Assays:
[1] = system: MDA-MB-231; test: Antiproliferative activity against human MDA-MB-231 cells assessed as inhibition of cell growth at 20 uM incubated for 48 hrs by MTT assay; type: functional
[2] = system: A-375; test: Antiproliferative activity against human A-375 cells assessed as inhibition of cell growth at 20 uM incubated for 48 hrs by MTT assay; type: functional
[3] = system: A549; test: Antiproliferative activity against human A549 cells assessed as inhibition of cell growth at 20 uM incubated for 48 hrs by MTT assay; type: functional
[4] = system: HeLa; test: Antiproliferative activity against human HeLa cells assessed as inhibition of cell growth at 20 uM incubated for 48 hrs by MTT assay; type: functional
[5] = system: HCT-116; test: Antiproliferative activity against human HCT-116 cells assessed as inhibition of cell growth at 20 uM incubated for 48 hrs by MTT assay; type: functional
[6] = system: HCT-116; test: Antiproliferative activity against human HCT-116 cells assessed as inhibition of cell growth incubated for 48 hrs by MTT assay; type: functional, cell-based; conditions: HCT-116, 48 h
[7] = system: A549; test: Antiproliferative activity against human A549 cells assessed as inhibition of cell growth incubated for 48 hrs by MTT assay; type: functional, cell-based; conditions: A549, 48 h
[8] = system: HeLa; test: Antiproliferative activity against human HeLa cells assessed as inhibition of cell growth incubated for 48 hrs by MTT assay; type: functional, cell-based
[9] = system: MDA-MB-231; test: Antiproliferative activity against human MDA-MB-231 cells assessed as inhibition of cell growth incubated for 48 hrs by MTT assay; type: functional, cell-based; conditions: MDA-MB-231, 48 h
[10] = system: A-375; test: Antiproliferative activity against human A-375 cells assessed as inhibition of cell growth incubated for 48 hrs by MTT assay; type: functional, cell-based; conditions: A-375, 48 h
[11] = system: L02; test: Antiproliferative activity against human L02 cells assessed as inhibition of cell growth […] incubated for 48 hrs by MTT assay; type: functional, cell-based; conditions: L02, 48 h
[12] = system: HCT-116; test: Inhibition of cell migration in human HCT-116 cells at 25 uM incubated for 48 hrs by wound healing assay (reference value: 42.8 %); type: functional
[13] = system: HCT-116; test: Inhibition of cell migration in human HCT-116 cells at 25 uM incubated for 24 hrs by wound healing assay (reference value: 32.0 %); type: functional

Row | Compound | inhibition at 20 µM [1] [%] | inhibition at 20 µM [2] [%] | inhibition at 20 µM [3] [%] | inhibition at 20 µM [4] [%] | inhibition at 20 µM [5] [%] | IC50 [6] [µM] | IC50 [7] [µM] | IC50 [8] [µM] | IC50 [9] [µM] | IC50 [10] [µM] | IC50 [11] [µM] | inhibition at 25 µM [12] [%] | inhibition at 25 µM [13] [%]
1 | NC(=O)c1ccccc1OCc1ccc(NC(=O)Nc2cccc(F)c2)cc1 | 36.2 | 36.9 | 28.6 | 33.7 | 43 | – | – | – | – | – | – | – | –
2 | Cc1cccc(NC(=O)Nc2cccc(COc3ccccc3C(N)=O)c2)c1 | 3.6 | 43.7 | 57.7 | 48.6 | 66.5 | – | – | – | – | – | – | – | –
3 | NC(=O)c1ccccc1OCc1cccc(NC(=O)Nc2cccc(Cl)c2)c1 | 65.2 | 63.1 | 85 | 77.6 | 83.3 | 12.3 | 12.4 | 12.7 | 21.2 | 28.5 | – | – | –
4 | NC(=O)c1ccccc1NCc1ccc(NC(=O)Nc2cccc(Br)c2)cc1 | 67.2 | 67.2 | 82.2 | 71.5 | 72.5 | 10.4 | 11.8 | 14 | 14.4 | 19.7 | – | – | –
5 | Cc1cccc(NC(=O)Nc2cccc(CNc3ccccc3C(N)=O)c2)c1 | 57.9 | 42.4 | 58.3 | 58 | 76.2 | 25.3 | 26.8 | 29.3 | 24.7 | 37 | – | – | –
6 | Cc1cccc(NC(=O)Nc2ccccc2CNc2ccccc2C(N)=O)c1 | 17.9 | 34 | 1.8 | < 1 | 71.9 | – | – | – | – | – | – | – | –
7 | NC(=O)c1ccccc1NCc1ccc(NC(=O)Nc2ccccc2)cc1 | 45.2 | 35 | 29 | 32.3 | 41.2 | – | – | – | – | – | – | – | –
8 | COc1cccc(NC(=O)Nc2ccc(CNc3ccccc3C(N)=O)cc2)c1 | 50 | 50.8 | 59.3 | 66.8 | 82.3 | 14.2 | 41.5 | 21.9 | 21.6 | 29.8 | – | – | –
9 | Cc1cccc(NC(=O)Nc2ccc(COc3ccccc3C(N)=O)cc2)c1 | 42.2 | 23.7 | 10 | 37.5 | 24 | – | – | – | – | – | – | – | –
10 | NC(=O)c1ccccc1OCc1ccccc1NC(=O)Nc1cccc(Br)c1 | 27.3 | 31.7 | 10.1 | 42.5 | 40.4 | – | – | – | – | – | – | – | –
11 | NC(=O)c1ccccc1NCc1ccccc1NC(=O)Nc1cccc(F)c1 | 52.1 | 28.3 | < 1 | 44.6 | 40.5 | – | – | – | – | – | – | – | –
12 | NC(=O)c1ccccc1NCc1ccc(NC(=O)Nc2cccc(Cl)c2)cc1 | 47.3 | 58.3 | 52.6 | 76.5 | 63.6 | 13.1 | 19.9 | 12.1 | 20.5 | 25.4 | – | – | –
13 | COc1cccc(NC(=O)Nc2ccc(COc3ccccc3C(N)=O)cc2)c1 | 53.4 | 33.1 | 33.1 | 21 | 56.7 | – | – | – | – | – | – | – | –
14 | NC(=O)c1ccccc1OCc1ccccc1NC(=O)Nc1ccccc1 | 30.3 | 21.7 | 33 | 36 | 13.3 | – | – | – | – | – | – | – | –
15 | NC(=O)c1ccccc1NCc1ccccc1NC(=O)Nc1cccc(Br)c1 | 19.2 | 38.2 | 36.1 | 15.5 | 29.1 | – | – | – | – | – | – | – | –
16 | NC(=O)c1ccccc1OCc1ccccc1NC(=O)Nc1cccc(Cl)c1 | 30.2 | 34.1 | 35.4 | 32.7 | 72.4 | – | – | – | – | – | – | – | –
17 | COc1cccc(NC(=O)Nc2ccccc2CNc2ccccc2C(N)=O)c1 | 37.7 | 35.4 | 13.1 | < 1 | 45.3 | – | – | – | – | – | – | – | –
18 | O=C(c1cc(Cc2n[nH]c(=O)c3ccccc23)ccc1F)N1CCN(C(=O)C2CC2)CC1 [OLAPARIB] | – | – | – | – | – | 27.3 | 31.6 | 27.7 | 24.8 | 12.7 | 60.7 | 33.1 | 25.8

Row | Compound | inhibition at 20 µM [1] [%] | inhibition at 20 µM [2] [%] | inhibition at 20 µM [3] [%] | inhibition at 20 µM [4] [%] | inhibition at 20 µM [5] [%] | IC50 [6] [µM] | IC50 [7] [µM] | IC50 [8] [µM] | IC50 [9] [µM] | IC50 [10] [µM] | IC50 [11] [µM] | inhibition at 25 µM [12] [%] | inhibition at 25 µM [13] [%]
19 | Cc1cccc(NC(=O)Nc2ccc(CNc3ccccc3C(N)=O)cc2)c1 | 50.5 | 14.3 | 2.12 | 39.6 | 33.7 | – | – | – | – | – | – | – | –
20 | NC(=O)c1ccccc1OCc1ccc(NC(=O)Nc2cccc(Br)c2)cc1 | 46.1 | 54 | 42.4 | 60.4 | 62.2 | 17.6 | 26.8 | 17.6 | 27.4 | 13.4 | – | – | –
21 | Cc1cccc(NC(=O)Nc2ccccc2COc2ccccc2C(N)=O)c1 | 37.8 | < 1 | 20.6 | < 1 | 80 | – | – | – | – | – | – | – | –
22 | NC(=O)c1ccccc1NCc1cccc(NC(=O)Nc2cccc(Cl)c2)c1 | 70.9 | 75.7 | 85.3 | 44.4 | 84 | 11.3 | 15.6 | 34 | 16.1 | 25.4 | – | – | –
23 | NC(=O)c1ccccc1OCc1ccc(NC(=O)Nc2cccc(Cl)c2)cc1 | 40.1 | 54.2 | 46.6 | 66.1 | 74 | 16.1 | 25.8 | 15.2 | 24.9 | 26.7 | – | – | –
24 | NC(=O)c1ccccc1OCc1cccc(NC(=O)Nc2ccccc2)c1 | 15 | 40.6 | 54.7 | 41 | 71.1 | – | – | – | – | – | – | – | –
25 | NC(=O)c1ccccc1NCc1cccc(NC(=O)Nc2cccc(F)c2)c1 | 58.9 | 17.9 | < 1 | 28.9 | 45.6 | – | – | – | – | – | – | – | –
26 | COc1cccc(NC(=O)Nc2ccccc2COc2ccccc2C(N)=O)c1 | 37.3 | 33.1 | < 1 | 26.5 | 70.2 | – | – | – | – | – | – | – | –
27 | NC(=O)c1ccccc1NCc1ccccc1NC(=O)Nc1cccc(Cl)c1 | 36.2 | 30 | 52.6 | 7.53 | 44.3 | – | – | – | – | – | – | – | –
28 | NC(=O)c1ccccc1OCc1cccc(NC(=O)Nc2cccc(F)c2)c1 | 57.7 | 17.5 | 17 | 40.1 | 32.6 | – | – | – | – | – | – | – | –
29 | NC(=O)c1ccccc1OCc1ccc(NC(=O)Nc2ccccc2)cc1 | 45.5 | 37.3 | 24.3 | 20.1 | 34.2 | – | – | – | – | – | – | – | –
30 | NC(=O)c1ccccc1NCc1ccc(NC(=O)Nc2cccc(F)c2)cc1 | 34.6 | 36.8 | 8.3 | 27.4 | 27 | – | – | – | – | – | – | – | –
31 | NC(=O)c1ccccc1NCc1cccc(NC(=O)Nc2ccccc2)c1 | 51.2 | 36.9 | 66.2 | 49.8 | 64.6 | – | – | – | – | – | – | – | –
32 | COc1cccc(NC(=O)Nc2cccc(CNc3ccccc3C(N)=O)c2)c1 | 59.1 | 25 | < 1 | 27 | 30.2 | – | – | – | – | – | – | – | –
33 | NC(=O)c1ccccc1OCc1ccccc1NC(=O)Nc1cccc(F)c1 | 40.4 | 22.5 | < 1 | < 1 | 18.9 | – | – | – | – | – | – | – | –
34 | NC(=O)c1ccccc1NCc1ccccc1NC(=O)Nc1ccccc1 | 40.9 | < 1 | 17.7 | < 1 | 83.3 | – | – | – | – | – | – | – | –
35 | COc1cccc(NC(=O)Nc2cccc(COc3ccccc3C(N)=O)c2)c1 | 38.8 | 29.9 | 15.8 | 33.1 | 36.8 | – | – | – | – | – | – | – | –
